Columns and labels:
Rattus norvegicus [1] = conditions: short-term, duration: 28 days, oral, gavage, Sprague-Dawley
Rattus norvegicus [2] = conditions: subchronic; duration: 90 days; oral; diet; M/F; CD; Deaths + Body Weight Changes: decrease + Food Consumption: decrease + Hematology: RBC decrease, HGB decrease, HCT decrease, WBC decrease, …

O=S(=O)(O)C(F)(F)C(F)(F)C(F)(F)C(F)(F)C(F)(F)C(F)(F)C(F)(F)C(F)(F)F [Perfluorooctanesulfonic acid]
< 2.88 mg/kg-day: NOAEL (Rattus norvegicus [2])
1.25 mg/kg-day: LOEL (Rattus norvegicus [1]; F, Organ weights_Lung - Relative) | LOEL (Rattus norvegicus [1]; F, Organ weights_Thymus - Absolute) | LOEL (Rattus norvegicus [1]; M, Gene expression_Acox1) | LOEL (Rattus norvegicus [1]; M, Nonneoplastic effects_Bone marrow - Hypocellularity) | LOEL (Rattus norvegicus [1]; M, Nonneoplastic effects_Liver - Hepatocyte, hypertrophy) | LOEL (Rattus norvegicus [1]; M, Nonneoplastic effects_Spleen - Extramedullary hematopoiesis, decreased) | LOEL (Rattus norvegicus [1]; M, Organ weights_R. adrenal gland - Absolute) | LOEL (Rattus norvegicus [1]; M, Organ weights_Spleen - Absolute)
5 mg/kg-day: NOEL (Rattus norvegicus [1]; F, Organ weights_R. adrenal gland - Absolute) | NOEL (Rattus norvegicus [1]; F, Organ weights_R. adrenal gland - Relative) | NOEL (Rattus norvegicus [1]; F, Organ weights_R. kidney - Absolute) | NOEL (Rattus norvegicus [1]; F, Organ weights_R. kidney - Relative) | NOEL (Rattus norvegicus [1]; F, Organ weights_Spleen - Absolute) | NOEL (Rattus norvegicus [1]; F, Organ weights_Spleen - Relative) | NOEL (Rattus norvegicus [1]; F, Organ weights_Thymus - Relative) | NOEL (Rattus norvegicus [1]; F, Survival rates) | LOEL (Rattus norvegicus [1]; M, Clinical chemistry_Albumin) | LOEL (Rattus norvegicus [1]; M, Clinical chemistry_Albumin/globulin ratio) | LOEL (Rattus norvegicus [1]; M, Clinical chemistry_Direct bilirubin) | LOEL (Rattus norvegicus [1]; M, Clinical chemistry_Globulin) | NOEL (Rattus norvegicus [1]; M, Clinical chemistry_Sorbitol dehydrogenase) | NOEL (Rattus norvegicus [1]; M, Clinical chemistry_Testosterone) | NOEL (Rattus norvegicus [1]; M, Clinical chemistry_Thyroid stimulating hormone) | LOEL (Rattus norvegicus [1]; M, Clinical chemistry_Total bile acids) | NOEL (Rattus norvegicus [1]; M, Clinical chemistry_Total bilirubin) | NOEL (Rattus norvegicus [1]; M, Clinical chemistry_Total protein) | LOEL (Rattus norvegicus [1]; M, Clinical chemistry_Triglycerides) | NOEL (Rattus norvegicus [1]; M, Hematology_Erythrocytes) | NOEL (Rattus norvegicus [1]; M, Hematology_Hematocrit) | NOEL (Rattus norvegicus [1]; M, Hematology_Hemoglobin) | LOEL (Rattus norvegicus [1]; M, Hematology_Leukocytes) | LOEL (Rattus norvegicus [1]; M, Hematology_S. neutrophils) | NOEL (Rattus norvegicus [1]; M, Nonneoplastic effects_Kidney - Papilla, necrosis) | NOEL (Rattus norvegicus [1]; M, Nonneoplastic effects_Liver - Hepatocyte, cytoplasmic alteration) | NOEL (Rattus norvegicus [1]; M, Nonneoplastic effects_Liver - Necrosis) | NOEL (Rattus norvegicus [1]; M, Nonneoplastic effects_Nose - Olfactory epithelium, degeneration) | NOEL (Rattus norvegicus [1]; M, Nonneoplastic effects_Nose - Olfactory epithelium, hyperplasia) | NOEL (Rattus norvegicus [1]; M, Nonneoplastic effects_Nose - Olfactory epithelium, inflammation, suppurative) | NOEL (Rattus norvegicus [1]; M, Nonneoplastic effects_Nose - Olfactory epithelium, necrosis) | NOEL (Rattus norvegicus [1]; M, Nonneoplastic effects_Stomach, forestomach - Epithelium, hyperplasia) | NOEL (Rattus norvegicus [1]; M, Nonneoplastic effects_Thymus - Atrophy) | LOEL (Rattus norvegicus [1]; M, Organ weights_Heart - Absolute) | NOEL (Rattus norvegicus [1]; M, Organ weights_Heart - Relative) | NOEL (Rattus norvegicus [1]; M, Organ weights_Lung - Absolute) | NOEL (Rattus norvegicus [1]; M, Organ weights_Lung - Relative) | NOEL (Rattus norvegicus [1]; M, Organ weights_R. adrenal gland - Relative) | NOEL (Rattus norvegicus [1]; M, Organ weights_R. kidney - Absolute) | NOEL (Rattus norvegicus [1]; M, Organ weights_R. kidney - Relative) | NOEL (Rattus norvegicus [1]; M, Organ weights_Spleen - Relative) | LOEL (Rattus norvegicus [1]; M, Organ weights_Thymus - Absolute) | LOEL (Rattus norvegicus [1]; M, Organ weights_Thymus - Relative) | NOEL (Rattus norvegicus [1]; M, Reproductive toxicity_Altered sperm parameters) | NOEL (Rattus norvegicus [1]; M, Survival rates)
0.312 mg/kg-day: LOEL (Rattus norvegicus [1]; M, Clinical chemistry_Cholesterol) | LOEL (Rattus norvegicus [1]; M, Clinical chemistry_Free thyroxine) | LOEL (Rattus norvegicus [1]; M, Clinical chemistry_Total thyroxine) | LOEL (Rattus norvegicus [1]; M, Gene expression_Cyp2b1) | LOEL (Rattus norvegicus [1]; M, Gene expression_Cyp2b2) | LOEL (Rattus norvegicus [1]; M, Gene expression_Cyp4a1) | LOEL (Rattus norvegicus [1]; M, Organ weights_Liver - Absolute) | LOEL (Rattus norvegicus [1]; M, Organ weights_Liver - Relative)
0.625 mg/kg-day: LOEL (Rattus norvegicus [1]; M, Clinical chemistry_Alanine aminotransferase) | LOEL (Rattus norvegicus [1]; M, Clinical chemistry_Alkaline phosphatase) | LOEL (Rattus norvegicus [1]; M, Clinical chemistry_Aspartate aminotransferase) | LOEL (Rattus norvegicus [1]; M, Clinical chemistry_Total triiodothyronine)
2.5 mg/kg-day: LOEL (Rattus norvegicus [1]; M, Gene expression_Acyl-CoA oxidase) | LOEL (Rattus norvegicus [1]; M, Hematology_Reticulocytes) | LOEL (Rattus norvegicus [1]; M, Nonneoplastic effects_Liver - Hepatocyte, vacuolization cytoplasmic)

Source: EPA's ToxValDB 9.5
